Test results: PMC4436593, “Endoplasmic reticulum stress-independent activation of unfolded protein response kinases by a small molecule ATP-mimic” (eLife, 2015)
pEC50, pIC50: −log10 of the molar value. Values joined by “and” are separate entries in the source; they are usually repeats but may differ in a detail not shown here. Equal values may be shown once.

Key:
[1] = test system: IRE1α-GFP in T-REx293 cells; assay: IRE1-GFP foci formation in T-REx293 cells (confocal microscopy); assay type: cell-based; details: doxycycline-induced IRE1α-GFP
Excerpt: We next used a T-REx293 cell line, containing a genome-integrated doxycycline-inducible IRE1α-GFP fusion gene, to monitor IRE1α oligomerization in vivo ([Li et al., 2010]). In the presence of doxycycline, IRE1α-GFP was expressed and localized to the ER (Figure 2D). […] Furthermore, the foci dissolved by 8 hr of treatment as cells attenuated IRE1α signaling even in the presence of unmitigated ER stress (Figure 2D, upper panels) ([Li et al., 2010]). […] While Tm-induced foci became larger and fewer over time as previously observed, IPA-induced foci remained small and numerous.
T-REx293 cells were split 2 days before imaging onto glass-bottom micro-well dishes (MatTek) at 5 × 10^4 cells/dish. Doxycyclin-containing medium (10 nM doxycycline) was added for 24 hr, withdrawn before imaging and replaced with imaging media (Hank's Balanced Salt Solution [Gibco], 2% FBS, and 5 mM HEPES pH 7.0). Images were acquired on a spinning-disk confocal microscope as described ([Li et al., 2010]).

[2] = test system: HEK293T cells; assay: HEK293T cell viability (CellTiter-Blue, 24 hr); assay type: cell-based; details: 24 hr
Protocol: HEK293T cells were grown in DMEM (Sigma) complete media containing 10% FBS, 10 units/ml penicillin (Invitrogen), and 10 μg/ml streptomycin (Invitrogen). Cells were plated at a density of 30,000 cells per well in 96-well black plates with clear flat bottoms (Corning, Sigma-Aldrich) 24 hr before the experiment. A 12-point semi-logarithmic dilution series of compounds was made starting at 30 μM not to exceed 0.1% DMSO after final dilution into the growth media. Viability assays were conducted over the course of 24 hr. Cell viability was determined using CellTiter-Blue (Promega) following the manufacturer's instructions. […] Experiments were done in triplicate, and mean values were computed for each data point.

[3] = test system: protein translation in HEK293T cells; assay: Metabolic labeling: [35S] methionine incorporation in HEK293T cells; assay type: cell-based; details: IPA 1 μM
Protocol: HEK293T cells (500,000 cells/ml) were plated in 12-well flat bottom culture cluster dishes (Costar, Fisher Scientific) 24 hr before the experiment. IPA (1 μM), or a combination of IPA with GSK2606414 (TRC inc. […] Cells lysates were kept on ice for 30 min before high-speed centrifugation followed by denaturation at 95°C. The samples were resolved on an SDS-polyacrylamide gel, which were then stained with Coomassie blue to ascertain protein loading. […] The resulting autoradiograms were quantified using ImageQuant software (Molecular Dynamics).

[4] = target: T1, GST-PERK kinase domain (580–1077 aa) (Mus musculus, UniProt Q9Z2B5); assay: In vitro GST-PERK kinase assay (eIF2α phosphorylation with γ-[32P]-ATP)
T1 sequence (Q9Z2B5 580-1077): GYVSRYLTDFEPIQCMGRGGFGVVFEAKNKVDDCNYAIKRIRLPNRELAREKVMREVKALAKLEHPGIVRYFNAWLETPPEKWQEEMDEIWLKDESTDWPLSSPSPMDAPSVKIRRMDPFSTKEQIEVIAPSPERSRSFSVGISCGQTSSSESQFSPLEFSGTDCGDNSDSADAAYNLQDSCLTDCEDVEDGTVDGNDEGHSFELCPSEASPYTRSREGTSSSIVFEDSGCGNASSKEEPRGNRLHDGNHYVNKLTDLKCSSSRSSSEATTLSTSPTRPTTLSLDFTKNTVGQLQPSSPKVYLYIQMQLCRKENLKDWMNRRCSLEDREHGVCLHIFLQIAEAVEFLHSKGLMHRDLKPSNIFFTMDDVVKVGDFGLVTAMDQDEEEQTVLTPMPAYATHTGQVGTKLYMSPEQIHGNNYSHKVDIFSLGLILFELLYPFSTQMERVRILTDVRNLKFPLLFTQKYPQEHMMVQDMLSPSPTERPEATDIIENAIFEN

[5] = target: IRE1α-KR43 (Homo sapiens, UniProt O75460); assay: FRET-based RNA cleavage assay (fluorescent HP17 substrate) of IRE1α-KR43 RNase activity
Chain of IRE1α-KR43 (O75460 465-977 limits assumed): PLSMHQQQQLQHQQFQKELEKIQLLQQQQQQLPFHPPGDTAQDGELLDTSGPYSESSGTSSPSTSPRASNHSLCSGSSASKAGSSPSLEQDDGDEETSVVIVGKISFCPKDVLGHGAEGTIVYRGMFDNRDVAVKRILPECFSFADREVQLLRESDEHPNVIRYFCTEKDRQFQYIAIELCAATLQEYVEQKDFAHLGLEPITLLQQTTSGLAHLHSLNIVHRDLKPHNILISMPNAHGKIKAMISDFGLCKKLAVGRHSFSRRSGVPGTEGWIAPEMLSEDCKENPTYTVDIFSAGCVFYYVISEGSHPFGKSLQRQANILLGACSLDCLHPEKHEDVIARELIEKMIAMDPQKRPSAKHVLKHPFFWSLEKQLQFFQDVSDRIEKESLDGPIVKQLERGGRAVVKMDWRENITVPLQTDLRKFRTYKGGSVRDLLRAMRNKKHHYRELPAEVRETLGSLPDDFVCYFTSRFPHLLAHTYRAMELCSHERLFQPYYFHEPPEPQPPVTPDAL

CSc1ccc(NC(=O)Nc2ccc(Nc3nccc(Nc4cc(C5CC5)[nH]n4)n3)cc2)cc1 [IPA] was tested, and the IRE1α-GFP foci formation [1] was “caused relocalization of IRE1α-GFP into foci”, the “LD50 cell viability in the presence of 1 μM GSK” value ([2]; IPA + 1 μM GSK2606414) was 6.21 µM and 6.2 µM and the LD50 cell viability ([2]; IPA alone) was 0.82 µM and 0.8 µM. For the same molecule, the “incorporation of [35S]-methionine into newly synthesized proteins” value [3] was “impaired”, the pIC50 [4] was 5.55 and the pEC50 [5] was 6.44.
